According to US20040110802A1, “Antibacterial benzoic acid derivatives” (priority 2002, published 2004):
In brackets after ≈: the same amount, converted by molar mass.

tested on: SAUR 9218; test: MIC Test Method, standard agar dilution; type: cell-based; settings: agar dilution, Mueller Hinton agar, incubated overnight at 35° C.; lowest concentration that inhibits visible growth; read-out: SAUR 9218 MIC
In short: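 Agar dilution in Mueller Hinton agar with serial 2-fold compound dilutions. Staphylococcus aureus strain 9218 spotted at approximately 10^4 to 10^5 cells per spot, incubated overnight at 35 °C; MIC (μg/ml) is the lowest concentration preventing visible growth.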

MIC [µg/mL]	Compound
2 (≈ 3.68 µM)	Cc1sc(C(=O)Nc2ccc(Br)cc2C(=O)O)cc1S(=O)(=O)N(C)c1ccc(Cl)cc1
4 (≈ 7.55 µM)	CN(c1ccc(Cl)cc1)S(=O)(=O)c1cc(C(=O)Nc2ccc(Br)cc2C(=O)O)cs1 [drawing 1603]
0.125 (≈ 0.272 µM)	Cn1c(C(=O)Nc2ccc(C#N)cc2C(=O)O)cc2cccc(S(=O)(=O)c3ccccc3)c21
128 (≈ 244 µM)	Nc1ccc(CCNS(=O)(=O)c2cc(C(=O)Nc3ccc(Br)cc3C(=O)O)cs2)cc1
4 (≈ 9.97 µM)	CC(C)n1c(C(=O)Nc2ccc(Br)cc2C(=O)O)cc2ccccc21
4 (≈ 9.36 µM)	O=C(Nc1ccc(Br)cc1C(=O)O)c1cc(OCc2ccccc2)ccn1
0.125 (≈ 0.256 µM)	N#Cc1ccc(NC(=O)c2cc3cccc(NC(=O)Cc4cccc5ccccc45)c3[nH]2)c(C(=O)O)c1
8 (≈ 20.2 µM)	N#Cc1ccc(NC(=O)c2cc3ccccc3n2Cc2ccccc2)c(C(=O)O)c1
0.125 (≈ 0.25 µM)	O=C(Nc1ccc(Br)cc1C(=O)O)c1cc2cccc(S(=O)(=O)c3ccccc3)c2[nH]1
> 128	O=C(O)c1cc(Br)ccc1NC(=O)c1ncccc1C(=O)c1ccccc1
8 (≈ 20 µM)	C=CCn1c(C(=O)Nc2ccc(Br)cc2C(=O)O)cc2ccccc21
8 (≈ 21.6 µM)	O=C(Nc1ccc(Br)cc1C(=O)O)c1ccc2ccccc2n1
2 (≈ 5.54 µM)	O=C(O)c1cc(Br)ccc1NC(=O)c1onc2ccccc12
> 128	O=C(Nc1ccc(Br)cc1C(=O)O)c1c[nH]c(SCc2ccccc2)n1
2 (≈ 4.51 µM)	O=C(Nc1ccc(Br)cc1C(=O)O)c1cc(SCc2ccccc2)ccn1
4 (≈ 8.9 µM)	O=C(O)c1cc(Br)ccc1NC(=O)c1cc2ccccc2n1Cc1ccccc1

MIC [µg/mL]	Compound
0.5 (≈ 1.06 µM)	N#Cc1ccc(NC(=O)c2cc3cccc(NC(=O)CSc4ccccc4)c3[nH]2)c(C(=O)O)c1
0.125 (≈ 0.3 µM)	COc1ccccc1-c1cc(C(=O)Nc2ccc(Br)cc2C(=O)O)no1
0.25 (≈ 0.529 µM)	N#Cc1ccc(NC(=O)c2cc3cccc(NC(=O)Cc4cccc(Cl)c4)c3[nH]2)c(C(=O)O)c1
4 (≈ 9.63 µM)	CCCCn1c(C(=O)Nc2ccc(Br)cc2C(=O)O)cc2ccccc21
2 (≈ 5.12 µM)	CCCC(=O)Nc1cccc2cc(C(=O)Nc3ccc(C#N)cc3C(=O)O)[nH]c12
0.5 (≈ 1.12 µM)	Cc1ccccc1-c1cc(C(=O)Nc2ccc(I)cc2C(=O)O)no1
0.125 (≈ 0.262 µM)	Cn1c(C(=O)Nc2cccc3cc(C(=O)Nc4ccc(C#N)cc4C(=O)O)[nH]c23)cc2ccccc21
0.125 (≈ 0.27 µM)	N#Cc1ccc(NC(=O)c2noc3ccc(NS(=O)(=O)c4ccccc4)cc23)c(C(=O)O)c1
8 (≈ 21.5 µM)	O=C(Nc1ccc(Br)cc1C(=O)O)c1cnc2ccccc2n1
0.25 (≈ 0.534 µM)	COc1ccc(CC(=O)Nc2cccc3cc(C(=O)Nc4ccc(C#N)cc4C(=O)O)[nH]c23)cc1
0.25 (≈ 0.534 µM)	CN(C)S(=O)(=O)c1ccc2onc(C(=O)Nc3ccc(Br)cc3C(=O)O)c2c1
32 (≈ 82 µM)	COc1cccc2cc(C(=O)Nc3ccc(Br)cc3C(=O)O)oc12
0.03 (≈ 0.0705 µM)	N#Cc1ccc(NC(=O)c2cc(-c3ccccc3Oc3ccccc3)on2)c(C(=O)O)c1
0.125 (≈ 0.267 µM)	Cn1c(C(=O)Nc2ccc(Cl)cc2C(=O)O)cc2cccc(S(=O)(=O)c3ccccc3)c21
1 (≈ 2.03 µM)	N#Cc1ccc(NC(=O)c2cc3cccc(NC(=O)c4cc(-c5ccccc5)on4)c3[nH]2)c(C(=O)O)c1
8 (≈ 14.8 µM)	CN(c1ccc(Cl)cc1)S(=O)(=O)c1cc(C(=O)Nc2ccc(Br)cc2C(=O)O)c[n+]([O-])c1

Further lines, the compound ahead of its results:

Compound	MIC [µg/mL]
O=C(Nc1ccc(Cl)cc1C(=O)O)c1cc(-c2ccccc2NS(=O)(=O)c2ccc(OC(F)(F)F)cc2)on1	8 (≈ 13.7 µM)
N#Cc1ccc(NC(=O)c2cc(CN=[N+]=[N-])on2)c(C(=O)O)c1	4 (≈ 12.8 µM)
N#Cc1ccc(NC(=O)c2cncc(-c3ccco3)c2)c(C(=O)O)c1	4 (≈ 12 µM)
CCCCCCOc1cnc(C(=O)Nc2ccc(C#N)cc2C(=O)O)cn1	0.125 (≈ 0.339 µM)
CCCCSc1cnc(C(=O)Nc2ccc(C#N)cc2C(=O)O)cn1	0.125 (≈ 0.351 µM)
COCCOCCCSc1cnc(C(=O)Nc2ccc(Br)cc2C(=O)O)cn1	2 (≈ 4.25 µM)
COc1ccc(-c2cnc(C(=O)Nc3ccc(Br)cc3C(=O)O)o2)cc1	2 (≈ 4.79 µM)
Cn1c(C(=O)Nc2ccc(C#N)cc2C(=O)O)cc2cccc(NC(=O)Cc3ccncc3)c21.O=C(O)C(F)(F)F	1
COc1ccc(C(=O)Nc2ccc(Br)cc2C(=O)O)c(OC)n1	> 128
CCCC(C)Sc1ccc(C(=O)Nc2ccc(C#N)cc2C(=O)O)cn1 (centres unmarked)	0.125 (≈ 0.338 µM)
CCCN(CCC)S(=O)(=O)c1ccc2onc(C(=O)Nc3ccc(C#N)cc3C(=O)O)c2c1	0.25 (≈ 0.531 µM)
Cn1c(C(=O)Nc2ccc(C#N)cc2C(=O)O)cc2cccc(C(OOSc3cnc(Cl)c(Br)c3)S(=O)(=O)c3cnc(Cl)c(Br)c3)c21 (centres unmarked)	0.03 (≈ 0.0356 µM)
CC(C)Oc1ccccc1-c1cc(C(=O)Nc2ccc(C#N)cc2C(=O)O)no1	0.125 (≈ 0.319 µM)
N#Cc1ccc(NC(=O)c2cc(-c3ccccc3)on2)c(C(=O)O)c1	0.25 (≈ 0.75 µM)
CCN(CC)S(=O)(=O)c1ccc2onc(C(=O)Nc3ccc(Br)cc3C(=O)O)c2c1	0.25 (≈ 0.504 µM)
O=C(Nc1ccc(Br)cc1C(=O)O)c1ccc(SC2CCCCC2)nc1	1 (≈ 2.3 µM)
CC1(C)OCC(/C=C/c2cnc(C(=O)Nc3ccc(Br)cc3C(=O)O)cn2)O1 (centres unmarked)	32 (≈ 71.4 µM)
CCCCCCC(=O)Nc1cccc2cc(C(=O)Nc3ccc(C#N)cc3C(=O)O)[nH]c12	0.5 (≈ 1.16 µM)
N#Cc1ccc(NC(=O)c2ccc(SCCCCN)nc2)c(C(=O)O)c1.O=C(O)C(F)(F)F	2
Cc1sc(C(=O)Nc2ccc(C#N)cc2C(=O)O)cc1S(=O)(=O)N(CC(C)C)CC(C)C	32 (≈ 67 µM)
COCOCC(O)C(Cc1cnc(C(=O)Nc2ccc(Br)cc2C(=O)O)cn1)OC (centres unmarked)	128 (≈ 264 µM)
O=C(Nc1ccc(I)cc1C(=O)O)c1cc(-c2ccccc2F)on1	0.5 (≈ 1.11 µM)

Compound	MIC [µg/mL]
Cn1c(C(=O)Nc2ccc(C#N)cc2C(=O)O)cc2ccc(NC(=O)c3ccc(OC(F)(F)F)cc3)cc21	2 (≈ 3.83 µM)
O=C(Nc1ccc(Cl)cc1C(=O)O)c1cc(CCCC2CCCCC2)on1	4 (≈ 10.2 µM)
CC(=O)Nc1ccc(S(=O)(=O)N(c2ccc3cc(C(=O)Nc4ccc(C#N)cc4C(=O)O)n(C)c3c2)S(=O)(=O)c2ccc(NC(C)=O)cc2)cc1	1 (≈ 1.37 µM)
Cn1c(C(=O)Nc2ccc(C#N)cc2C(=O)O)cc2ccc(-c3ccccc3F)cc21	0.5 (≈ 1.21 µM)
Cn1c(C(=O)Nc2ccc(C#N)cc2C(=O)O)cc2cccc(OCC3CCCCC3)c21	0.25 (≈ 0.579 µM)
O=C(Nc1ccc(Br)cc1C(=O)O)c1cnc(CC(O)[C@H](O)CO)cn1 (some centres unmarked)	> 128
Cc1nc2cc(NS(=O)(=O)c3cc(C(=O)Nc4ccc(Br)cc4C(=O)O)sc3C)ccc2s1	32 (≈ 56.5 µM)
Cc1noc(C)c1CSc1ccc(C(=O)Nc2ccc(C#N)cc2C(=O)O)cn1	0.5 (≈ 1.22 µM)
N#Cc1ccc(NC(=O)c2nc3ccccc3[nH]2)c(C(=O)O)c1	4 (≈ 13.1 µM)
N#Cc1ccc(NC(=O)c2cnccn2)c(C(=O)O)c1	128 (≈ 477 µM)
CCCn1c(C(=O)Nc2ccc(C#N)cc2C(=O)O)cc2ccccc21	2 (≈ 5.76 µM)
N#Cc1ccc(NC(=O)c2cc3ccccc3cn2)c(C(=O)O)c1	1 (≈ 3.15 µM)
Cc1c(S(=O)(=O)Nc2ccc(N3CCOCC3)cc2)csc1C(=O)Nc1ccc(Br)cc1C(=O)O	64 (≈ 110 µM)
N#Cc1ccc(NC(=O)c2ccc(-c3ccccc3C(F)(F)F)nn2)c(C(=O)O)c1	16 (≈ 38.8 µM)
Cc1sc(C(=O)Nc2ccc(C#N)cc2C(=O)O)cc1S(=O)(=O)N1CCC(O)(c2ccc(Br)cc2)CC1	32 (≈ 52.9 µM)
CC(C)(C)N1C(=O)c2ccc(C(=O)Nc3ccc(Br)cc3C(=O)O)cc2C1=O	4 (≈ 8.98 µM)
O=C(Nc1ccc(Br)cc1C(=O)O)c1ncc(-c2ccccc2C(F)(F)F)o1	1 (≈ 2.2 µM)
CCCCCCCSc1cnc(C(=O)Nc2ccc(C#N)cc2C(=O)O)cn1	0.25 (≈ 0.627 µM)
CCCCCCSc1ccc(C(=O)Nc2ccc(Br)cc2C(=O)O)nn1	0.125 (≈ 0.285 µM)
Cn1c(C(=O)Nc2ccc(C#N)cc2C(=O)O)cc2cccc(Br)c21	0.5 (≈ 1.26 µM)
CCCCCCCSc1ccc(C(=O)Nc2ccc(C#N)cc2C(=O)O)nn1	0.015 (≈ 0.0376 µM)
Cc1c(S(=O)(=O)Nc2ccc(F)c(Cl)c2)csc1C(=O)Nc1ccc(Br)cc1C(=O)O	64 (≈ 117 µM)

Compound	MIC [µg/mL]
Cn1c(C(=O)Nc2ccc(C#N)cc2C(=O)O)cc2cccc(-c3ccccc3C(F)(F)F)c21	0.06 (≈ 0.129 µM)
N#Cc1ccc(NC(=O)c2coc(-c3ccccc3)n2)c(C(=O)O)c1	64 (≈ 192 µM)
Cn1c(C(=O)Nc2ccc(C#N)cc2C(=O)O)cc2ccc(-c3ccccc3C(F)(F)F)cc21	0.125 (≈ 0.27 µM)
Cc1sc(C(=O)Nc2ccc(C#N)cc2C(=O)O)cc1S(=O)(=O)N1CCN(c2ccccn2)CC1	32 (≈ 62.6 µM)
Cc1sc(C(=O)Nc2ccc(Br)cc2C(=O)O)cc1S(=O)(=O)Nc1ccc(F)c(Cl)c1	8 (≈ 14.6 µM)
Cc1noc(C)c1-c1cc(C(=O)Nc2ccc(C#N)cc2C(=O)O)no1	1 (≈ 2.84 µM)
COc1ccccc1-c1cccc2cc(C(=O)Nc3ccc(C#N)cc3C(=O)O)n(C)c12	0.25 (≈ 0.588 µM)
Cn1c(C(=O)Nc2ccc(C#N)cc2C(=O)O)cc2cccc(NS(=O)(=O)CS(C)(=O)=O)c21	2 (≈ 4.08 µM)
CCCCCCSc1ccc(C(=O)Nc2ccc(Br)cc2C(=O)O)nc1	0.5 (≈ 1.14 µM)
CC(Oc1ccccc1-c1cc(C(=O)Nc2ccc(C#N)cc2C(=O)O)no1)C1CCCCC1 (centres unmarked)	1 (≈ 2.18 µM)
N#Cc1ccc(NC(=O)c2cc(-c3ccccc3OCC3COc4ccccc4O3)on2)c(C(=O)O)c1 (centres unmarked)	0.25 (≈ 0.503 µM)
CC(C)Cn1c(C(=O)Nc2ccc(Cl)cc2C(=O)O)cc2ccccc21	2 (≈ 5.39 µM)
CCCCN(CCO)S(=O)(=O)c1cc(C(=O)Nc2ccc(C#N)cc2C(=O)O)sc1C	32 (≈ 68.7 µM)
N#Cc1ccc(NC(=O)c2csc(-c3cccnc3)n2)c(C(=O)O)c1	> 128
O=C(Nc1ccc(Br)cc1C(=O)O)c1cc(Cl)nc(Cl)c1	32 (≈ 82 µM)
CCCCCn1c(C(=O)Nc2ccc(Cl)cc2C(=O)O)cc2ccccc21	4 (≈ 10.4 µM)
N#Cc1ccc(NC(=O)c2noc3ccc(S(=O)(=O)N4CCCC4)cc23)c(C(=O)O)c1	0.06 (≈ 0.136 µM)
N#Cc1ccc(NC(=O)c2noc3ccc(-c4ccccc4C(F)(F)F)cc23)c(C(=O)O)c1	0.125 (≈ 0.277 µM)
N#Cc1ccc(NC(=O)c2cc3cccnc3s2)c(C(=O)O)c1	4 (≈ 12.4 µM)
CS(=O)(=O)c1ncc(Cl)c(C(=O)Nc2ccc(Cl)cc2C(=O)O)n1	> 128
N#Cc1ccc(NC(=O)c2cc3ccccc3o2)c(C(=O)O)c1	2 (≈ 6.53 µM)
Cn1c(C(=O)Nc2ccc(C#N)cc2C(=O)O)cc2cccc(O)c21	1 (≈ 2.98 µM)
